The supplement of paper PMC10307832

compound: COC1=CC=C(C=C1)COC2=C(C=C(C=C2)CC3=CN=C(N=C3N)N)OC [GW-2580] + CS(=O)(=O)CCNCc1ccc(-c2ccc3ncnc(Nc4ccc(OCc5cccc(F)c5)c(Cl)c4)c3c2)o1 [Lapatinib] (partner 2 µM); experiment: relative viability (nuclei count vs DMSO), 5 days (fraction); higher = more cells survive; conditions: first compound 0.08 µM
How it was run: (§1)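 Relative viability equals treated-well nuclei counts divided by vehicle-well nuclei counts. Counts came from 4× images of lung cancer cell lines grown in 1536-well plates for 5 days after pin-tool dosing on the day after seeding. Dosing used one drug alone or a fixed anchor-drug dose plus five library-drug doses (not always all listed) in √10 steps, and values are medians of duplicate plates.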

| Cell Line | relative viability |
| --- | --- |
| LXF-289 | 0.941 |
| NCI-H23 | 1.03 |
| NCI-H647 | 1.22 |
| CAL-12T | 0.601 |
| NCI-H1651 | 1.08 |
| EPLC-272H | 1.13 |
| NCI-H2228 | 0.893 |
| NCI-H1792 | 0.936 |
| NCI-H1355 | 1.08 |
| NCI-H3122 | 1.01 |
| NCI-H1437 | 0.82 |
| NCI-H1755 | 1.12 |
| NCI-H2023 | 0.899 |
| HCC-15 | 0.87 |
| NCI-H1793 | 0.803 |
| PC-14 | 0.379 |
| EKVX | 0.181 |
| LC-2-ad | 1.14 |
| NCI-H1944 | 0.843 |
| NCI-H1975 | 0.925 |
| RERF-LC-KJ | 0.895 |
| ABC-1 | 1.42 |
| NCI-H358 | 0.499 |
| NCI-H650 | 0.93 |
| PC-3 [JPC-3] | 0.458 |

same assay, conditions: first compound 0.8 µM

| Cell Line | relative viability |
| --- | --- |
| LXF-289 | 0.946 |
| NCI-H23 | 1.09 |
| NCI-H647 | 1.29 |
| CAL-12T | 0.662 |
| NCI-H1651 | 0.909 |
| EPLC-272H | 1.04 |
| NCI-H2228 | 1.28 |
| NCI-H1792 | 1.1 |
| NCI-H1355 | 1.2 |
| NCI-H3122 | 1.02 |
| NCI-H1437 | 0.965 |
| NCI-H1755 | 1.28 |
| NCI-H2023 | 0.964 |
| HCC-15 | 1.08 |
| NCI-H1793 | 0.74 |
| PC-14 | 0.35 |
| EKVX | 0.236 |
| LC-2-ad | 0.982 |
| NCI-H1944 | 0.98 |
| NCI-H1975 | 1.09 |
| RERF-LC-KJ | 0.909 |
| ABC-1 | 1.03 |
| NCI-H358 | 0.484 |
| NCI-H650 | 1.09 |
| PC-3 [JPC-3] | 0.462 |

same assay, conditions: first compound 2.53 µM

| Cell Line | relative viability |
| --- | --- |
| LXF-289 | 0.815 |
| NCI-H23 | 0.936 |
| NCI-H647 | 0.926 |
| CAL-12T | 0.545 |
| NCI-H1651 | 0.778 |
| EPLC-272H | 0.886 |
| NCI-H2228 | 1.38 |
| NCI-H1792 | 0.484 |
| NCI-H1355 | 0.817 |
| NCI-H3122 | 0.999 |
| NCI-H1437 | 0.723 |
| NCI-H1755 | 0.94 |
| NCI-H2023 | 0.633 |
| HCC-15 | 0.807 |
| NCI-H1793 | 0.571 |
| PC-14 | 0.307 |
| EKVX | 0.189 |
| LC-2-ad | 0.992 |
| NCI-H1944 | 0.82 |
| NCI-H1975 | 0.885 |
| RERF-LC-KJ | 0.736 |
| NCI-H358 | 0.409 |
| NCI-H650 | 0.801 |
| PC-3 [JPC-3] | 0.358 |

same assay, conditions: first compound 8 µM

| Cell Line | relative viability |
| --- | --- |
| LXF-289 | 0.829 |
| NCI-H23 | 1.25 |
| NCI-H647 | 1.15 |
| CAL-12T | 0.735 |
| NCI-H1651 | 0.956 |
| EPLC-272H | 0.916 |
| NCI-H2228 | 1.02 |
| NCI-H1792 | 1.1 |
| NCI-H1355 | 1.01 |
| NCI-H3122 | 1.04 |
| NCI-H1437 | 0.781 |
| NCI-H1755 | 0.96 |
| NCI-H2023 | 0.797 |
| HCC-15 | 0.866 |
| NCI-H1793 | 0.459 |
| PC-14 | 0.268 |
| EKVX | 0.18 |
| LC-2-ad | 0.896 |
| NCI-H1944 | 0.897 |
| NCI-H1975 | 0.834 |
| RERF-LC-KJ | 0.884 |
| ABC-1 | 1.18 |
| NCI-H358 | 0.409 |
| NCI-H650 | 0.864 |
| PC-3 [JPC-3] | 0.446 |

compound: COC1=CC=C(C=C1)COC2=C(C=C(C=C2)CC3=CN=C(N=C3N)N)OC [GW-2580] + N=C(N)NC(=N)NCCc1ccccc1 [Phenformin] (partner 250 µM); experiment: as above; conditions: first compound 0.08 µM
How it was run: as §1

| Cell Line | relative viability |
| --- | --- |
| LXF-289 | 0.514 |
| NCI-H23 | 0.872 |
| NCI-H647 | 0.605 |
| CAL-12T | 0.624 |
| NCI-H1651 | 0.36 |
| EPLC-272H | 0.272 |
| NCI-H2228 | 0.395 |
| NCI-H1792 | 0.4 |
| NCI-H1355 | 0.426 |
| NCI-H3122 | 0.41 |
| NCI-H1437 | 0.339 |
| NCI-H1755 | 0.667 |
| NCI-H2023 | 0.466 |
| HCC-15 | 0.537 |
| NCI-H1793 | 0.4 |
| PC-14 | 0.358 |
| EKVX | 0.244 |
| LC-2-ad | 0.595 |
| NCI-H1944 | 0.198 |
| NCI-H1975 | 0.44 |
| RERF-LC-KJ | 0.435 |
| ABC-1 | 0.236 |
| NCI-H358 | 0.365 |
| NCI-H650 | 0.43 |
| PC-3 [JPC-3] | 0.472 |

same assay, conditions: first compound 0.8 µM

| Cell Line | relative viability |
| --- | --- |
| LXF-289 | 0.521 |
| NCI-H23 | 0.768 |
| NCI-H647 | 0.623 |
| CAL-12T | 0.613 |
| NCI-H1651 | 0.371 |
| EPLC-272H | 0.339 |
| NCI-H2228 | 0.371 |
| NCI-H1792 | 0.226 |
| NCI-H1355 | 0.496 |
| NCI-H3122 | 0.366 |
| NCI-H1437 | 0.31 |
| NCI-H1755 | 0.631 |
| NCI-H2023 | 0.423 |
| HCC-15 | 0.486 |
| NCI-H1793 | 0.259 |
| PC-14 | 0.82 |
| EKVX | 0.264 |
| LC-2-ad | 0.674 |
| NCI-H1944 | 0.201 |
| NCI-H1975 | 0.43 |
| RERF-LC-KJ | 0.418 |
| ABC-1 | 0.226 |
| NCI-H358 | 0.518 |
| NCI-H650 | 0.474 |
| PC-3 [JPC-3] | 0.489 |

same assay, conditions: first compound 2.53 µM

| Cell Line | relative viability |
| --- | --- |
| LXF-289 | 0.489 |
| NCI-H23 | 0.798 |
| NCI-H647 | 0.401 |
| CAL-12T | 0.609 |
| NCI-H1651 | 0.304 |
| NCI-H2228 | 0.358 |
| NCI-H1792 | 0.146 |
| NCI-H1355 | 0.347 |
| NCI-H3122 | 0.339 |
| NCI-H1437 | 0.332 |
| NCI-H1755 | 0.326 |
| NCI-H2023 | 0.336 |
| HCC-15 | 0.426 |
| NCI-H1793 | 0.314 |
| PC-14 | 0.494 |
| EKVX | 0.212 |
| LC-2-ad | 0.634 |
| NCI-H1944 | 0.169 |
| NCI-H1975 | 0.414 |
| RERF-LC-KJ | 0.445 |
| ABC-1 | 0.234 |
| NCI-H358 | 0.36 |
| NCI-H650 | 0.392 |
| PC-3 [JPC-3] | 0.489 |

same assay, conditions: first compound 8 µM

| Cell Line | relative viability |
| --- | --- |
| LXF-289 | 0.506 |
| NCI-H23 | 0.851 |
| NCI-H647 | 0.661 |
| CAL-12T | 0.514 |
| NCI-H1651 | 0.358 |
| EPLC-272H | 0.354 |
| NCI-H2228 | 0.318 |
| NCI-H1792 | 0.313 |
| NCI-H1355 | 0.397 |
| NCI-H3122 | 0.341 |
| NCI-H1437 | 0.357 |
| NCI-H1755 | 0.594 |
| NCI-H2023 | 0.382 |
| HCC-15 | 0.515 |
| NCI-H1793 | 0.286 |
| PC-14 | 0.615 |
| EKVX | 0.233 |
| LC-2-ad | 0.682 |
| NCI-H1944 | 0.189 |
| NCI-H1975 | 0.418 |
| RERF-LC-KJ | 0.395 |
| ABC-1 | 0.224 |
| NCI-H358 | 0.353 |
| NCI-H650 | 0.481 |
| PC-3 [JPC-3] | 0.464 |

compound: COC1=CC=C(C=C1)COC2=C(C=C(C=C2)CC3=CN=C(N=C3N)N)OC [GW-2580] + CC(=O)c1c(C)c2cnc(Nc3ccc(N4CCNCC4)cn3)nc2n(C2CCCC2)c1=O [Palbociclib] (partner 0.5 µM); experiment: as above; conditions: first compound 0.08 µM
How it was run: as §1

| Cell Line | relative viability |
| --- | --- |
| LXF-289 | 0.616 |
| NCI-H23 | 0.529 |
| NCI-H647 | 0.384 |
| CAL-12T | 0.639 |
| NCI-H1651 | 0.503 |
| EPLC-272H | 0.317 |
| NCI-H2228 | 0.793 |
| NCI-H1792 | 0.96 |
| NCI-H1355 | 0.407 |
| NCI-H3122 | 0.207 |
| NCI-H1437 | 0.307 |
| NCI-H1755 | 0.458 |
| NCI-H2023 | 0.398 |
| HCC-15 | 0.82 |
| NCI-H1793 | 0.412 |
| PC-14 | 0.653 |
| EKVX | 0.341 |
| LC-2-ad | 0.578 |
| NCI-H1944 | 0.33 |
| NCI-H1975 | 0.738 |
| RERF-LC-KJ | 1.13 |
| ABC-1 | 0.74 |
| NCI-H358 | 0.135 |
| NCI-H650 | 0.314 |
| PC-3 [JPC-3] | 0.546 |

same assay, conditions: first compound 0.8 µM

| Cell Line | relative viability |
| --- | --- |
| LXF-289 | 0.64 |
| NCI-H23 | 0.549 |
| NCI-H647 | 0.398 |
| CAL-12T | 0.416 |
| NCI-H1651 | 0.594 |
| EPLC-272H | 0.337 |
| NCI-H2228 | 1.03 |
| NCI-H1792 | 0.997 |
| NCI-H1355 | 0.439 |
| NCI-H3122 | 0.199 |
| NCI-H1437 | 0.338 |
